Experimental data taken from patent US11660338B2, “Particles comprising a shell with RNA” (BIONTECH SE, priority 2013, dated 2023).

Tested on: Vγ9Vδ2 T cells
Details: 7-day co-culture, 5 μM ZA, 10 U/mL IL-2; mean of two donors

O=P(O)(O)C(O)(Cn1ccnc1)P(=O)(O)O [zoledronic acid]
expansion rate of Vγ9δ2 T cells: about 15 fold
